Results on two molecules are retold here after patent publication US20230167150A1, “CD33 LIGANDS SUITABLE FOR INCORPORATION INTO CARRIERS” (GLYCOMIMETICS, INC., priority 2020, published 2023).

Broadly, the IC50 is the point on the concentration scale where inhibition reaches its midpoint. Low values mean higher potency, high ones lower potency.

For this assay, the target named is T1, CD33 (Homo sapiens, UniProt P20138).
T1 construct: purchased BioLegend 750106
As to the kind of experiment: CD33 activity competitive binding assay (ELISA). Conditions: immobilized CD33-Fc; competition with Neu5Acα2-3Galβ1-3GalNAc-PAA-biotin; streptavidin/horseradish peroxidase, TMB, absorbance 450 nm. The protocol: The assay to screen for and characterize glycomimetic ligands of CD33 is a competitive binding assay, which allows the determination of IC50 values. CD33-Fc (BioLegend catalog item 750106) was immobilized in 96 well microtiter plates by incubation at 4° C. overnight. To reduce non-specific binding, bovine serum albumin was added to each well and incubated at room temperature for 3 hours. The plate was washed and serial dilutions of the test compounds were added to the wells in the presence of biotinylated polyacrylamide conjugated with Neu5Acα2-3Galβ1-3GalNAc-PAA-biotin (GlycoTech catalog item 01-088). After incubation at room temperature for 2 hours and washing, streptavidin/horseradish peroxidase was added to each well and incubated at room temperature for 30 minutes followed by an additional wash.
To determine the amount of glycopolymer bound to the immobilized CD33, the peroxidase substrate […] tetramethylbenzidine (TMB) was added. After 5 minutes, the enzyme reaction was stopped by the addition of H3PO4, and the absorbance of light at a wavelength of 450 nm was determined. The concentration of test compound required to inhibit binding by 50% was determined and reported as the IC50 value.

Each structure is given as a SMILES string.

T1 sequence (P20138 18-364): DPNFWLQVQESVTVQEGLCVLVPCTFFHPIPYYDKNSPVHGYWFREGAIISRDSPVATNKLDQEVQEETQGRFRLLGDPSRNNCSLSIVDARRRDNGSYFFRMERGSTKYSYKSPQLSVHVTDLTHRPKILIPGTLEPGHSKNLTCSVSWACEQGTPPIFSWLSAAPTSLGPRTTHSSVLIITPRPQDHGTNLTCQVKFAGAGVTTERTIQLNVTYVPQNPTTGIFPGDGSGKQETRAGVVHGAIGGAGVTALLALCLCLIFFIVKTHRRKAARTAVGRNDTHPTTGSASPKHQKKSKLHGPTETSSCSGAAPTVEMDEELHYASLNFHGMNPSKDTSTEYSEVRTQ

In turn, `Cc1cc(C(=O)NC[C@@H](O)[C@@H](O)C2O[C@@](OCCCN(Cc3ccccc3)C(=O)CCOCCOCCOCCOCCOCCOCCN=[N+]=[N-])(C(=O)O)CC(O)[C@H]2NC(=O)Cn2cc(C3CCCCC3)nn2)cc(C)c1O` (some centres unmarked) [Compound 13] yielded an IC50 of 54 µM.

Molecule `Cc1cc(C(=O)NC[C@@H](O)[C@@H](O)C2O[C@@](OCCCN(CCc3ccccc3)C(=O)CCOCCOCCOCCOCCOCCOCCN=[N+]=[N-])(C(=O)O)CC(O)[C@H]2NC(=O)Cn2cc(C3CCCCC3)nn2)cc(C)c1O` (some centres unmarked) [Compound 15] gave a 50% inhibitory concentration (IC50) of 27 µM.
